Data published in doi:10.1101/2024.08.25.609621 (bioRxiv, 2024).
Where two headings read alike, the source gives them in different places.

Target: SARS-CoV-2 NSP3 macrodomain (Mac1), P43 crystal form (Severe acute respiratory syndrome coronavirus 2, UniProt P0DTD1)
Type: binding
Settings: for 1-BDC: PanDDA background density correction; for Total number of conformations: ligand conformations modeled in Mac1 crystal structure; for X-ray crystallography: Binding site: site where the ligand is bound in the X-ray crystal structure
[1] = TRUE = crystal structure with ligand determined
[2] = crystal soak concentration 3 mM, P43 crystals
[3] = crystal soak concentration 3 mM
[4] = occupancy estimate from PanDDA 1-BDC
[5] = site of Mac1 where ligand bound in crystal structure
[6] = X-ray crystal structure determined (TRUE)
[7] = crystal soak 10 mM, P43 crystals
[8] = crystal soak, soak concentration 10 mM, TRUE = ligand hit
[9] = site of ligand in X-ray crystal structure
[10] = crystal soak 10 mM, TFA/DMSO background map
[11] = crystal soak, soak concentration 10 mM
[12] = crystal structure with Mac1 determined (TRUE)
[13] = site of ligand in Mac1 crystal structure
[14] = crystal soak concentration 10 mM, P43 crystals
[15] = crystal soak concentration 10 mM
[16] = crystal soak concentration 20 mM
[17] = crystal soak concentration 20 mM, event 1
[18] = crystal soak concentration 20 mM, P43 crystals

SMILES	1-BDC	Total number of conformations	2*(1-BDC) (%) [4]	X-ray crystal structure [6]	Pandda run, overall: Hit [7]	Pandda run, overall: Modeled [7]	PanDDA run, DMSO background map: 1-BDC (crystal soak 10 mM)	PanDDA run, DMSO background map: Hit (crystal soak 10 mM)	Binding site [9]	other results
Cc1c(C)n(Cc2ccccc2)c2ncnc(N)c12 [AVI-321]	0.08	1	16%							PanDDA run, DMSO background map: 1-BDC (event 1): 0.15; X-ray crystal structure [1]: TRUE; Pandda run, overall: Hit [2]: TRUE; Pandda run, overall: Modeled [2]: TRUE; PanDDA run, DMSO background map: Hit [3]: TRUE; PanDDA run, DMSO background map: Modeled [3]: TRUE; PanDDA run, DMSO background map: 1-BDC (crystal soak concentration 3 mM, event 1): 0.08; Binding site [5]: Adenosine
CCC(Nc1ncnc2[nH]ccc12)C(C)O (centres unmarked) [AVI-3635]	0.14	2	28%	TRUE	TRUE	TRUE	0.14	TRUE	Adenosine	Pandda run, overall: Hit [8]: TRUE; PanDDA run, DMSO background map: 1-BDC (soak concentration 10 mM): 0.23; PanDDA run, DMSO background map: Hit (soak concentration 10 mM): TRUE
CC(C)(C)CC(CO)Nc1ncnc2[nH]ccc12 (centres unmarked) [AVI-3648]	0.13	1	26%	TRUE	TRUE	TRUE	0.13	TRUE	Adenosine	
CC(C)CCC(CO)Nc1ncnc2[nH]ccc12.O=C(O)C(F)(F)F (centres unmarked) [AVI-3668]					TRUE		0.15	TRUE		Pandda run, overall: Modeling comment [7]: Weak density, not modeled; PanDDA run, TFA/DMSO background map: 1-BDC [10]: 0.09; PanDDA run, TFA/DMSO background map: Hit [10]: TRUE
OC[C@@H]1C[C@H](F)CN1c1ncnc2[nH]ccc12 [AVI-609]	0.17	1	34%							Pandda run, overall: Modeled [11]: TRUE; Pandda run, overall: Hit [8]: TRUE; X-ray crystallography: Binding site: Adenosine; PanDDA run, DMSO background map: 1-BDC (soak concentration 10 mM): 0.17; PanDDA run, DMSO background map: Hit (soak concentration 10 mM): TRUE
OCC(CC1CC1)Nc1ncnc2[nH]ccc12 (centres unmarked) [AVI-3662]	0.14	1	28%	TRUE	TRUE	TRUE	0.14	TRUE	Adenosine	Pandda run, overall: Modeling comment [7]: Distal site, weak density, not modeled
OC1CCCN(c2ncnc3[nH]ccc23)C1 (centres unmarked) [AVI-3646]	0.22	1	44%		TRUE	TRUE	0.22	TRUE		X-ray crystal structure [12]: TRUE; Binding site [13]: Adenosine
OCC(Nc1ncnc2[nH]ccc12)c1ccccc1 (centres unmarked) [AVI-3715]	0.18	1	36%	TRUE					Adenosine	Pandda run, overall: Modeled [11]: TRUE; Pandda run, overall: Hit [8]: TRUE; PanDDA run, DMSO background map: 1-BDC (soak concentration 10 mM): 0.18; PanDDA run, DMSO background map: Hit (soak concentration 10 mM): TRUE
OCC(CC1OCCO1)Nc1ncnc2[nH]ccc12 (centres unmarked) [AVI-3658]	0.2	1	40%	TRUE	TRUE	TRUE	0.2	TRUE	Adenosine	
OCC(CC1CCCC1)Nc1ncnc2[nH]ccc12 (centres unmarked) [AVI-3691]	0.18	1	36%	TRUE	TRUE	TRUE	0.18	TRUE	Adenosine	
O=C(O)C(F)(F)F.O[C@H]1CCC[C@@H]1Nc1ncnc2[nH]ccc12 [AVI-3639]	0.11	1	22%	TRUE	TRUE	TRUE	0.11	TRUE	Adenosine	
Cc1cc2c(=O)n(CCN3C(=O)c4ccccc4S3(=O)=O)nnc2s1 [AVI-341]	0.18	1	36%							X-ray crystal structure [1]: TRUE; PanDDA run, DMSO background map: 1-BDC (crystal soak concentration 10 mM, event 1): 0.18; Pandda run, overall: Hit [14]: TRUE; Pandda run, overall: Modeled [14]: TRUE; PanDDA run, DMSO background map: Hit [15]: TRUE; PanDDA run, DMSO background map: Modeled [15]: TRUE; PanDDA run, DMSO background map: Hit [16]: TRUE; PanDDA run, DMSO background map: 1-BDC [17]: 0.19; Pandda run, overall: Hit [18]: TRUE; Pandda run, overall: Modeling comment [18]: Duplicate, not modeled; Binding site [5]: Adenosine
CC1CC(C(=O)O)CCN1C(=O)c1ccc2c(c1)NC(=O)CO2 (centres unmarked) [AVI-303]	0.13	1	26%							X-ray crystal structure [1]: TRUE; PanDDA run, DMSO background map: Hit [16]: TRUE; PanDDA run, DMSO background map: 1-BDC [17]: 0.19; Pandda run, overall: Hit [18]: TRUE; Pandda run, overall: Modeling comment [18]: Duplicate, not modeled; Pandda run, overall: Hit (crystal soak, soak concentration 10 mM, P43 crystals, TRUE = ligand-binding event identified): TRUE; PanDDA run, DMSO background map: Hit [11]: TRUE; PanDDA run, DMSO background map: Modeled [11]: TRUE; PanDDA run, DMSO background map: 1-BDC (crystal soak, soak concentration 10 mM, event 1): 0.13; Pandda run, overall: Modeled (crystal soak, soak concentration 10 mM, TRUE = ligand modeled): TRUE; Binding site [5]: Adenosine
O=C(O)C(F)(F)F.OC[C@@H]1CC2(CC2)CN1c1ncnc2[nH]ccc12 [AVI-3710]	0.26	2	52%							Pandda run, overall: Modeled [11]: TRUE; Pandda run, overall: Modeling comment [11]: Weak density for open state of Phe132 loop; Pandda run, overall: Hit [8]: TRUE; X-ray crystallography: Binding site: Adenosine; PanDDA run, DMSO background map: 1-BDC (soak concentration 10 mM): 0.26; PanDDA run, DMSO background map: Hit (soak concentration 10 mM): TRUE
C#CCC(CO)Nc1ncnc2[nH]ccc12 (centres unmarked) [AVI-3644]	0.18	1	36%	TRUE	TRUE	TRUE	0.18	TRUE	Adenosine	
O=C(O)C(F)(F)F.OCC(CC1CCOCC1)Nc1ncnc2[nH]ccc12 (centres unmarked) [AVI-3676]										Pandda run, overall: Modeling comment [7]: TFA only
OCC1CC2(CCOCC2)CN1c1ncnc2[nH]ccc12 (centres unmarked) [AVI-3707]	0.21	1	42%							Pandda run, overall: Modeled [11]: TRUE; Pandda run, overall: Modeling comment [11]: Distal site, weak density, not modeled; Pandda run, overall: Hit [8]: TRUE; X-ray crystallography: Binding site: Adenosine; PanDDA run, DMSO background map: 1-BDC (soak concentration 10 mM): 0.21; PanDDA run, DMSO background map: Hit (soak concentration 10 mM): TRUE
OCC1COCCN1c1ncnc2[nH]ccc12 (centres unmarked) [AVI-3717]	0.14	2	28%							Pandda run, overall: Modeled [11]: TRUE; Pandda run, overall: Hit [8]: TRUE; X-ray crystallography: Binding site: Adenosine; PanDDA run, DMSO background map: 1-BDC (soak concentration 10 mM): 0.14; PanDDA run, DMSO background map: Hit (soak concentration 10 mM): TRUE
CCC1(O)CCN(c2ncnc3[nH]ccc23)C1 (centres unmarked) [AVI-612]	0.17	1	34%							Pandda run, overall: Modeled (crystal soak, soak concentration 5 mM): TRUE; Pandda run, overall: Hit (crystal soak, soak concentration 5 mM, TRUE = ligand hit): TRUE; X-ray crystal structure [12]: TRUE; Binding site [13]: Adenosine; PanDDA run, DMSO background map: 1-BDC (soak concentration 5 mM): 0.17; PanDDA run, DMSO background map: Hit (soak concentration 5 mM): TRUE
CC(C)(C)C(O)CC(CO)Nc1ncnc2[nH]ccc12.O=C(O)C(F)(F)F (centres unmarked) [AVI-3714]										Pandda run, overall: Modeling comment [11]: TFA only
Cc1nn(C)cc1C1CCC(CO)N1c1ncnc2[nH]ccc12 (centres unmarked) [AVI-3733]	0.1	1	20%		TRUE	TRUE	0.1	TRUE		X-ray crystallography: Binding site: Adenosine
CC(C)C1CCCN1c1ncnc2[nH]ccc12 (centres unmarked) [AVI-5216]	0.13	1								Occupancy difference (refined_occupancy - 2*(1-BDC)): 14; Refined ligand occupancy (%): 40%; PanDDA run, DMSO background map: 1-BDC (event 1): 0.13; 2*(1-BDC) (%) (occupancy estimate from PanDDA BDC): 26%; X-ray crystallography: Binding site: Adenosine
O=C(O)C(F)(F)F.OCC(Cc1cccc(F)c1)Nc1ncnc2[nH]ccc12 (centres unmarked) [AVI-3706]										Pandda run, overall: Modeling comment [11]: TFA only
